Data from patent US7524964B2, “Tetrahydrothiopyrano pyrazole cannabinoid modulators” (Janssen Pharmaceutica NV, priority 2005, dated 2009).
Read-outs that look alike come from different tables or passages of the source.

Assays:
human CB-2 receptor = biological target: T1, human CB-2 receptor (Homo sapiens, UniProt P34972); experiment: Binding assay, cannabinoid CB2 receptor ([3H]-CP-55,940 displacement); conditions: read-out: CB2 binding percent inhibition
T1 construct: expressed in transfected cells; host or cells: SK-N-MC cells, pcDNA3 CB-2 (human), semi-purified membranes
T1 sequence (P34972 whole entry): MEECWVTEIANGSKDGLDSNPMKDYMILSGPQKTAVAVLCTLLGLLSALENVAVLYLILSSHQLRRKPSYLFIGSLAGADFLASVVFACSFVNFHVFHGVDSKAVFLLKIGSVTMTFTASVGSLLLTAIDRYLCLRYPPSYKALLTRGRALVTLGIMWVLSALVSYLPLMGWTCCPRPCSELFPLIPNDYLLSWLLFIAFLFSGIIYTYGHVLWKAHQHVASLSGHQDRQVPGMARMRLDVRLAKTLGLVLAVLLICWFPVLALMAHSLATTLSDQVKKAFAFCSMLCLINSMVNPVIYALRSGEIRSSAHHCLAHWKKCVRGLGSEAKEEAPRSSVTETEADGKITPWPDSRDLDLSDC
Procedure, shortened: (§1)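 Membranes from SK-N-MC cells stably expressing human CB-1 or CB-2 were incubated 90 min at 30° C with 0.2 nM [3H]-CP-55,940 in pH 7.5 Tris buffer with fatty-acid-free BSA; 10 uM WIN 55,212 defined non-specific binding. Filter-bound counts gave IC50 by linear regression, or percent inhibition at 0.2, 1 or 10 μM.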

human CB1 receptor = human CB1 receptor (Homo sapiens, UniProt P21554); experiment: Binding assay, cannabinoid CB1 receptor ([3H]-CP-55,940 displacement); set-up: expressed in transfected cells; host or cells: SK-N-MC cells, pcDNA3 CB-1 (human), semi-purified membranes; conditions: for inhibition at 0.2 µM: test concentration 0.2 μM (superscript a), read-out: CB1 binding percent inhibition
human CB1 receptor, sequence (P21554 whole entry): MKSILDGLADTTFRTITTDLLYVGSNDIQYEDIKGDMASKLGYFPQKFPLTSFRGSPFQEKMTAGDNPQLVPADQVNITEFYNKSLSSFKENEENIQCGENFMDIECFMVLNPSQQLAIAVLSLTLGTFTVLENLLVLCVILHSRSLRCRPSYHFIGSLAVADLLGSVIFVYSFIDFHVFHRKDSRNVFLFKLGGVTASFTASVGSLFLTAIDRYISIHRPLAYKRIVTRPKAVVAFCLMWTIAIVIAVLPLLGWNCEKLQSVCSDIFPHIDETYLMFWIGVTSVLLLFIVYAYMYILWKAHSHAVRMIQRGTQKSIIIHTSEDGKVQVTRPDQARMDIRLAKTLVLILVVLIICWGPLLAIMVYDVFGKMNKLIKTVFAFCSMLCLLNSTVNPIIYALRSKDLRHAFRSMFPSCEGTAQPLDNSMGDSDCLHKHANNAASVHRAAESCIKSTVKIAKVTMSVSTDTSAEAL
Procedure, shortened: as §1

[1] = test concentration 0.2 μM (superscript a)

Row | Structure (SMILES) | inhibition at 0.2 µM (human CB-2 receptor; [1]) | inhibition at 0.2 µM (human CB1 receptor) | IC50 (human CB1 receptor) | inhibition at 0.2 µM (human CB-2 receptor)
1 | O=C(NCc1ccccn1)c1nn(-c2ccc(Cl)cc2Cl)c2c1CS(=O)(=O)C/C2=C\c1ccc(F)cc1 [Cpd 73, (7Z)-1-(2,4-dichloro-phenyl)-7-(4-fluoro-benzylidene)-5,5-dioxo-4,5,6,7-tetrahydro-1H-5λ^6-thiopyrano[4,3-c]pyrazole-3-carboxylic acid (pyridin-2-ylmethyl)-amide] | 13% | 56% |  | 
2 | C[C@H](NC(=O)c1nn(-c2ccc(Cl)cc2Cl)c2c1C[S+]([O-])C/C2=C\c1ccc(F)cc1)c1ccccc1 (stereo partly drawn) [Cpd 74, (7Z)-1-(2,4-dichloro-phenyl)-7-(4-fluoro-benzylidene)-5-oxo-4,5,6,7-tetrahydro-1H-5λ^4-thiopyrano[4,3-c]pyrazole-3-carboxylic acid [(1S)-1-phenyl-ethyl]-amide] | 8% | 45% |  | 
3 | C[C@@H](NC(=O)c1nn(-c2ccc(Cl)cc2Cl)c2c1C[S+]([O-])C/C2=C\c1ccc(F)cc1)c1ccccc1 (stereo partly drawn) [Cpd 75, (7Z)-1-(2,4-dichloro-phenyl)-7-(4-fluoro-benzylidene)-5-oxo-4,5,6,7-tetrahydro-1H-5λ^4-thiopyrano[4,3-c]pyrazole-3-carboxylic acid [(1R)-1-phenyl-ethyl]-amide] | 2% |  | 14 nM | 
4 | O=C(N[C@@H]1CCC[C@H]1O)c1nn(-c2ccc(Cl)cc2Cl)c2c1C[S+]([O-])C/C2=C\c1ccc(F)cc1 (stereo partly drawn) [Cpd 76, (7Z)-1-(2,4-dichloro-phenyl)-7-(4-fluoro-benzylidene)-5-oxo-4,5,6,7-tetrahydro-1H-5λ^4-thiopyrano[4,3-c]pyrazole-3-carboxylic acid [(1R,2R)-2-hydroxy-cyclopentyl]-amide] | 0% | 20% |  | 
5 | O=C(NNc1ccc(Cl)cc1Cl)c1nn(-c2ccc(Cl)cc2Cl)c2c1C[S+]([O-])C/C2=C\c1ccc(F)cc1 (stereo not shown) [Cpd 77, (7Z)-1-(2,4-dichloro-phenyl)-7-(4-fluoro-benzylidene)-5-oxo-4,5,6,7-tetrahydro-1H-5λ^4-thiopyrano[4,3-c]pyrazole-3-carboxylic acid N′-(2,4-dichloro-phenyl)-hydrazide] | 9% | 55% |  | 
6 | C[C@@H](NC(=O)c1c2c(nn1-c1ccc(Cl)cc1Cl)/C(=C/c1ccc(F)cc1)CSC2)c1ccccc1 [Cpd 78, (7Z)-2-(2,4-dichloro-phenyl)-7-(4-fluoro-benzylidene)-2,4,6,7-tetrahydro-thiopyrano[4,3-c]pyrazole-3-carboxylic acid [(1R)-1-phenyl-ethyl]-amide] | 11% | 62% |  | 
7 | O=C(NN1CCCCC1)c1nn(-c2ccc(Cl)cc2Cl)c2c1C[S+]([O-])C/C2=C\c1ccc(F)cc1 (stereo not shown) [Cpd 79, (7Z)-1-(2,4-dichloro-phenyl)-7-(4-fluoro-benzylidene)-5-oxo-4,5,6,7-tetrahydro-1H-5λ^4-thiopyrano[4,3-c]pyrazole-3-carboxylic acid piperidin-1-ylamide] | 10% |  | 160 nM | 
8 | O=C(NCc1ccccn1)c1nn(-c2ccc(Cl)cc2Cl)c2c1C[S+]([O-])C/C2=C\c1ccc(F)cc1 (stereo not shown) [Cpd 80, (7Z)-1-(2,4-dichloro-phenyl)-7-(4-fluoro-benzylidene)-5-oxo-4,5,6,7-tetrahydro-1H-5λ^4-thiopyrano[4,3-c]pyrazole-3-carboxylic acid (pyridin-2-ylmethyl)-amide] | 2% | 21% |  | 
9 | O=C(NN1CCCCC1)c1nn(-c2ccc(Cl)cc2Cl)c2c1CS(=O)(=O)C/C2=C\c1ccc(F)cc1 [Cpd 81, (7Z)-1-(2,4-dichloro-phenyl)-7-(4-fluoro-benzylidene)-5,5-dioxo-4,5,6,7-tetrahydro-1H-5λ^6-thiopyrano[4,3-c]pyrazole-3-carboxylic acid piperidin-1-ylamide] | 24% |  | 32 nM | 
10 | C[C@@H](NC(=O)c1c2c(nn1-c1ccc(Cl)cc1Cl)/C(=C/c1ccc(F)cc1)CS(=O)(=O)C2)c1ccccc1 [Cpd 82, (7Z)-2-(2,4-dichloro-phenyl)-7-(4-fluoro-benzylidene)-5,5-dioxo-4,5,6,7-tetrahydro-2H-5λ^6-thiopyrano[4,3-c]pyrazole-3-carboxylic acid [(1R)-1-phenyl-ethyl]-amide] | 19% |  | 48 nM | 
11 | O=C(NN1CCCCC1)c1c2c(nn1-c1ccc(Cl)cc1Cl)/C(=C/c1ccc(F)cc1)CS(=O)(=O)C2 [Cpd 83, (7Z)-2-(2,4-dichloro-phenyl)-7-(4-fluoro-benzylidene)-5,5-dioxo-4,5,6,7-tetrahydro-2H-5λ^6-thiopyrano[4,3-c]pyrazole-3-carboxylic acid piperidin-1-ylamide] | 17% |  | 27 nM | 
12 | C[C@@H](NC(=O)c1c2c(nn1-c1ccc(Cl)cc1Cl)/C(=C/c1ccc(F)cc1)CS(=O)(=O)C2)C1CCCCC1 [Cpd 84, (7Z)-2-(2,4-dichloro-phenyl)-7-(4-fluoro-benzylidene)-5,5-dioxo-4,5,6,7-tetrahydro-2H-5λ^6-thiopyrano[4,3-c]pyrazole-3-carboxylic acid [(1R)-1-cyclohexyl-ethyl]-amide] | 17% |  | 2 nM | 
13 | C[C@H](NC(=O)c1c2c(nn1-c1ccc(Cl)cc1Cl)/C(=C/c1ccc(F)cc1)CS(=O)(=O)C2)C1CCCCC1 [Cpd 85, (7Z)-2-(2,4-dichloro-phenyl)-7-(4-fluoro-benzylidene)-5,5-dioxo-4,5,6,7-tetrahydro-2H-5λ^6-thiopyrano[4,3-c]pyrazole-3-carboxylic acid [(1S)-1-cyclohexyl-ethyl]-amide] | 20% |  | 35 nM | 
14 | C[C@H](NC(=O)c1c2c(nn1-c1ccc(Cl)cc1Cl)/C(=C/c1ccc(F)cc1)CS(=O)(=O)C2)c1ccccc1 [Cpd 86, (7Z)-2-(2,4-dichloro-phenyl)-7-(4-fluoro-benzylidene)-5,5-dioxo-4,5,6,7-tetrahydro-2H-5λ^6-thiopyrano[4,3-c]pyrazole-3-carboxylic acid [(1S)-1-phenyl-ethyl]-amide] | 14% |  | 21 nM | 
15 | O=C(NN1CC2CCCC2C1)c1c2c(nn1-c1ccc(Cl)cc1Cl)/C(=C/c1ccc(F)cc1)CS(=O)(=O)C2 (stereo not shown) [Cpd 87, (7Z)-2-(2,4-dichloro-phenyl)-7-(4-fluoro-benzylidene)-5,5-dioxo-4,5,6,7-tetrahydro-2H-5λ^6-thiopyrano[4,3-c]pyrazole-3-carboxylic acid (hexahydro-cyclopenta[c]pyrrol-2-yl)-amide] | 4% |  | 18 nM | 
16 | O=C(NN1CCCCC1)c1c2c(nn1-c1ccc(Cl)cc1Cl)/C(=C/c1ccc(F)cc1)CSC2 [Cpd 88, (7Z)-2-(2,4-dichloro-phenyl)-7-(4-fluoro-benzylidene)-2,4,6,7-tetrahydro-thiopyrano[4,3-c]pyrazole-3-carboxylic acid piperidin-1-ylamide] | 9% | 46% |  | 
17 | C[C@@H](NC(=O)c1c2c(nn1-c1ccc(Cl)cc1Cl)/C(=C/c1ccc(F)cc1)CSC2)C1CCCCC1 [Cpd 89, (7Z)-2-(2,4-dichloro-phenyl)-7-(4-fluoro-benzylidene)-2,4,6,7-tetrahydro-thiopyrano[4,3-c]pyrazole-3-carboxylic acid [(1R)-1-cyclohexyl-ethyl]-amide] | 10% |  | 74 nM | 
18 | C[C@H](NC(=O)c1c2c(nn1-c1ccc(Cl)cc1Cl)/C(=C/c1ccc(F)cc1)CSC2)C1CCCCC1 [Cpd 90, (7Z)-2-(2,4-dichloro-phenyl)-7-(4-fluoro-benzylidene)-2,4,6,7-tetrahydro-thiopyrano[4,3-c]pyrazole-3-carboxylic acid [(1S)-1-cyclohexyl-ethyl]amide] | 18% | 31% |  | 
19 | C[C@H](NC(=O)c1c2c(nn1-c1ccc(Cl)cc1Cl)/C(=C/c1ccc(F)cc1)CSC2)c1ccccc1 [Cpd 91, (7Z)-2-(2,4-dichloro-phenyl)-7-(4-fluoro-benzylidene)-2,4,6,7-tetrahydro-thiopyrano[4,3-c]pyrazole-3-carboxylic acid [(1S)-1-phenyl-ethyl]-amide] | 14% | 38% |  | 
20 | O=C(NN1CC2CCCC2C1)c1c2c(nn1-c1ccc(Cl)cc1Cl)/C(=C/c1ccc(F)cc1)CSC2 (stereo not shown) [Cpd 92, (7Z)-2-(2,4-dichloro-phenyl)-7-(4-fluoro-benzylidene)-2,4,6,7-tetrahydro-thiopyrano[4,3-c]pyrazole-3-carboxylic acid (hexahydro-cyclopenta[c]pyrrol-2-yl)-amide] | 8% | 47% |  | 
21 | O=C(NN1CCCCC1)c1nn(-c2ccc(Cl)cc2)c2c1CSC/C2=C\c1ccc(F)cc1 [Cpd 93, (7Z)-1-(4-chloro-phenyl)-7-(4-fluoro-benzylidene)-1,4,6,7-tetrahydro-thiopyrano[4,3-c]pyrazole-3-carboxylic acid piperidin-1-ylamide] | 26% |  | 36 nM | 
22 | C[C@@H](NC(=O)c1nn(-c2ccc(Cl)cc2)c2c1CSC/C2=C\c1ccc(F)cc1)c1ccccc1 [Cpd 94, (7Z)-1-(4-chloro-phenyl)-7-(4-fluoro-benzylidene)-1,4,6,7-tetrahydro-thiopyrano[4,3-c]pyrazole-3-carboxylic acid [(1R)-1-phenyl-ethyl]-amide] |  |  | 11 nM | 22%
23 | C[C@@H](NC(=O)c1nn(-c2ccc(Cl)cc2)c2c1CS(=O)(=O)C/C2=C\c1ccc(F)cc1)c1ccccc1 [Cpd 95, (7Z)-1-(4-chloro-phenyl)-7-(4-fluoro-benzylidene)-5,5-dioxo-4,5,6,7-tetrahydro-1H-5λ^6-thiopyrano[4,3-c]pyrazole-3-carboxylic acid [(1R)-1-phenyl-ethyl]-amide] |  |  | 9 nM | 15%
